Measurements as given in ChEMBL document CHEMBL2331376, “Ridaifen B, a tamoxifen derivative, directly binds to Grb10 interacting GYF protein 2” (Bioorg Med Chem, 2013).
Active and inactive are the calls of the source. No cut-off for these calls is given here.

How the values were obtained:
[1] = target: T1, GRB10-interacting GYF protein 2 (Homo sapiens, UniProt Q6Y7W6); experiment: (§1) Binding affinity to recombinant His-tagged Grb10 interacting GYF protein 2 (745-1030 amino acids) (unknown origin) by surface plasmon resonance analysis
T1 sequence (Q6Y7W6 whole entry): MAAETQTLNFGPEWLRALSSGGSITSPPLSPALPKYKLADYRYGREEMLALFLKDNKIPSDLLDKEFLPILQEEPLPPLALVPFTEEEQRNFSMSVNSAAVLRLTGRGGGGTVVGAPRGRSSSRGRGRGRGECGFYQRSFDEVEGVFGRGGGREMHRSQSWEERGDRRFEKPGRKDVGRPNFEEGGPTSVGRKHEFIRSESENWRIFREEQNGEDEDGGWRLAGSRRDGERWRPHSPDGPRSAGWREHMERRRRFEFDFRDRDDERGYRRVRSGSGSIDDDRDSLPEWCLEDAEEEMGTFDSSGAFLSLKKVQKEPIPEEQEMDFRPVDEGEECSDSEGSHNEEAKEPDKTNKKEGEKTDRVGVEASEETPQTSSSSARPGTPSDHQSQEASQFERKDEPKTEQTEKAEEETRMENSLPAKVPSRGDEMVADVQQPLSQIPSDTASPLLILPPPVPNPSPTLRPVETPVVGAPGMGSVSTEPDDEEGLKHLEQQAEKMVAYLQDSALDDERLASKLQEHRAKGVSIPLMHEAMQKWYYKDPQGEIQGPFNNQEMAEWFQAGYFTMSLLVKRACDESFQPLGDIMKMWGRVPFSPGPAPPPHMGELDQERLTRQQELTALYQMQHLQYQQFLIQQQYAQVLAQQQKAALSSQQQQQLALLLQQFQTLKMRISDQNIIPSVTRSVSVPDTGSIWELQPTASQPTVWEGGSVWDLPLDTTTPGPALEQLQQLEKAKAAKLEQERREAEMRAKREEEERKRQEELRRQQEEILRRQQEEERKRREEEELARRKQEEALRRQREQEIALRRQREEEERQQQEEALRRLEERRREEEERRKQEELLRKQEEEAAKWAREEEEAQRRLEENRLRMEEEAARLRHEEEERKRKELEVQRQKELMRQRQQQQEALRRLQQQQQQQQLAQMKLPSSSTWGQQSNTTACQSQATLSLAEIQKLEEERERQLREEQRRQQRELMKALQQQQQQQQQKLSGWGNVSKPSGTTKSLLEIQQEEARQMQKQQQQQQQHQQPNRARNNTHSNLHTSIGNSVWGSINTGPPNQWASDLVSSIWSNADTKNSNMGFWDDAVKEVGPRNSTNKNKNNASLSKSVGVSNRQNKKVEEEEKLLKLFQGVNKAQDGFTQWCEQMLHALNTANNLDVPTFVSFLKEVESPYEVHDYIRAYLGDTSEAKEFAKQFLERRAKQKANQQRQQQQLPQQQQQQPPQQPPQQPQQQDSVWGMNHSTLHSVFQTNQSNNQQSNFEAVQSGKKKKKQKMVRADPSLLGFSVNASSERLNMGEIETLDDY

[2] = target: T2, GRB10-interacting GYF protein 2 (Homo sapiens) (UniProt Q6Y7W6); experiment: as §1
T2 sequence (whole entry): T1 sequence (Q6Y7W6 whole entry)

[3] = target: T2, GRB10-interacting GYF protein 2 (Homo sapiens); experiment: Binding affinity to Flag-tagged Grb10 interacting GYF protein 2 (unknown origin) expressed in HEK293T cells by Western blotting method based pull-down assay; type: cell-based; details: HEK-293T
[4] = target: T2, GRB10-interacting GYF protein 2 (Homo sapiens); experiment: Binding affinity to Grb10 interacting GYF protein 2 in human Jurkat cells using 10 uM compound immobilized on streptavidin-coated wells by T7 phase display screening method; type: cell-based

Kd [1] [nM] | Activity [2] | Activity [3] | Activity [4] | SMILES
186 | Dose-dependent effect | Active | Active | CCC(=C(c1ccc(OCCN2CCCC2)cc1)c1ccc(OCCN2CCCC2)cc1)c1cccc(OC(=O)CCCCCNC(=O)CCCC[C@@H]2SC[C@@H]3NC(=O)N[C@@H]32)c1
– | inactive | inactive | inactive | CCC(=C(c1ccc(OCCN2CCOCC2)cc1)c1ccc(OCCN2CCOCC2)cc1)c1cccc(OC(=O)CCCCCNC(=O)CCCC[C@@H]2SC[C@@H]3NC(=O)N[C@@H]32)c1
